System: B16 melanoma cells
Experiment: B16 melanoma test (test 1)
Assay type: cell-based
Conditions: Mus musculus, 50 /ug/ml, aqueous suspension, incubation 20 hours, cells counted 48 hours after start
Experimental: B16 melanoma cells grow as a "mono]ayer". The doubling time of these cells in a cell culture is 12-16 hours.
On day 0, a quantity of […] B16 melanoma cells is introduced in each cell culture dish.
On day 1 the compounds to be examined are vortexed in the presence of glass beads. The compound to be tested is then added to the dishes with melanoma celles in the desired quantity. The incubation takes place at 37°C for 20 hours in a C02 incubator. The incubation is terminated by removing the culture medium with therein the compound to be tested, after which the cells are wahsed once and fresh medium is added.
Forty-eight hours after the beginning of the incubation the quantity of cells in each dish is measured by means of a microcell Coulter Counter. The results thus obtained are expressed by indicating the activity of the compounds by 1+, 2+, 3+, 4+ or 5+ having the following meanings: • 1+: cell growth is inhibited by 1-20% with respect to the control test • 2+: cell growth is inhibited by 21-40% with respect to the control test • 3+: cell growth is inhibited by 41-60% with respect to the control test • 4+: cell growth is inhibited by 61-80% with respect to the control test • 5+: cell growth is inhibited by 81-100% with respect to the control test.
Sensitivity of B16 melanoma cells.
In the above-described manner, various compounds according to the invention were tested in dosages of 50 /ug/ml in the form of an aqueous suspension.

Structure (SMILES) | inhibition at 50 µg/mL [%]
O=C(NC(=O)c1c(O)cccc1Cl)Nc1c(F)c(F)c(F)c(F)c1F [compound 1] | 61 to 80
O=C(NC(=O)c1c(F)c(F)c(F)c(F)c1F)Nc1ccc(O)c(C(F)(F)F)c1 [compound 2] | 81 to 100
CN(C)c1cccc(F)c1C(=O)NC(=O)Nc1ccc(Cl)cc1 [compound 3] | 81 to 100
O=C(NC(=O)c1c(F)cccc1F)Nc1ccc(C(O)(C(F)(F)F)C(F)(F)F)cc1 [compound 4] | 81 to 100
CCOC(=O)c1ccc(NC(=O)NC(=O)c2c(F)cccc2F)cc1 [compound 5] | 41 to 60
O=C(NC(=O)c1c(F)c(F)c(F)c(F)c1F)Nc1c(F)c(F)c(F)c(F)c1F [compound 6] | 81 to 100
O=C(NC(=O)c1c(F)c(F)c(F)c(F)c1F)Nc1ccc(Cl)cc1 [compound 7] | 61 to 80
Nc1ccc(C(=O)NC(=O)Nc2ccccc2N)cc1 [compound 8] | 1 to 20
Nc1cc(N)c(Cl)c(C(=O)NC(=O)Nc2ccc(Cl)cc2)c1Cl [compound 9] | 21 to 40
O=C(NC(=O)c1ccccc1N1CCCCC1)Nc1ccc(C(F)(F)F)cc1 [compound 10] | 1 to 20
COc1ccc(NC(=O)NC(=O)c2c(F)cccc2N(C)C)cc1 [compound 11] | 81 to 100
CN(C)c1cccc(F)c1C(=O)NC(=O)Nc1c(F)c(F)c(F)c(F)c1F [compound 12] | 61 to 80
Nc1ccccc1C(=O)NC(=O)Nc1ccc(Cl)cc1 [compound 13] | 1 to 20
CC(Oc1ccc(NC(=O)NC(=O)c2c(F)cccc2F)cc1)c1ccncc1 (centres unmarked) [compound 14] | 61 to 80
CN(C)c1ccccc1C(=O)NC(=O)Nc1ccc(Cl)cc1 [compound 15] | 81 to 100
O=C(NC(=O)Nc1ccc(Cl)cc1)NC(=O)c1c(O)cccc1Cl [compound 16] | 61 to 80
CCN(CC)c1cccc(F)c1C(=O)NC(=O)Nc1ccc(Cl)cc1 [compound 17] | 21 to 40
